# Laboratory results taken from PubChem BioAssay (NCI).
#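 1) Cells in 96-well plates. 2) Compound, 48 h, 5 concentrations. 3) Linear interpolation between surrounding doses. 4) Unreached endpoint = highest concentration. GI50 is the concentration that inhibits growth by half. Definition used: TGI = concentration required for complete inhibition of growth.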
# How the values were obtained:
# Assay in all cases: DTP human tumour cell line panel, 48 h
# [1] = system: 786-0 renal
# [2] = system: A498 renal
# [3] = system: A549 NSCLC
# [4] = system: ACHN renal
# [5] = system: BT-549 breast
# [6] = system: CAKI-1 renal
# [7] = system: CCRF-CEM leukemia
# [8] = system: COLO 205 colon
# [9] = system: DU-145 prostate
# [10] = system: EKVX NSCLC
# [11] = system: HCC-2998 colon
# [12] = system: HCT-116 colon
# [13] = system: HCT-15 colon
# [14] = system: HL-60(TB) leukemia
# [15] = system: HOP-62 NSCLC
# [16] = system: HOP-92 NSCLC
# [17] = system: HS 578T breast
# [18] = system: HT29 colon
# [19] = system: IGROV1 ovarian
# [20] = system: K-562 leukemia
# [21] = system: KM12 colon
# [22] = system: LOX IMVI melanoma
# [23] = system: M14 melanoma
# [24] = system: MALME-3M melanoma
# [25] = system: MCF7 breast
# [26] = system: MDA-MB-231 breast
# [27] = system: MDA-MB-435
# [28] = system: MOLT-4 leukemia
# [29] = system: NCI-H226 lung
# [30] = system: NCI-H23 lung
# [31] = system: NCI-H460 lung
# [32] = system: NCI-H522 lung
# [33] = system: NCI/ADR-RES ovarian
# [34] = system: OVCAR-4 ovarian
# [35] = system: OVCAR-5 ovarian
# [36] = system: OVCAR-8 ovarian
# [37] = system: PC-3 prostate
# [38] = system: RXF 393 renal
# [39] = system: SF-268 CNS
# [40] = system: SF-295 CNS
# [41] = system: SF-539 CNS
# [42] = system: SK-MEL-2 melanoma
# [43] = system: SK-MEL-28 melanoma
# [44] = system: SK-MEL-5 melanoma
# [45] = system: SK-OV-3 ovarian
# [46] = system: SN12C renal
# [47] = system: SNB-19 CNS
# [48] = system: SNB-75 CNS
# [49] = system: SR leukemia
# [50] = system: SW-620 colon
# [51] = system: T-47D breast
# [52] = system: TK-10 renal
# [53] = system: U251 CNS
# [54] = system: UACC-257 melanoma
# [55] = system: UACC-62 melanoma
# [56] = system: UO-31 renal
structure (smiles),measurement,setting,value
CCn1c(SCC(=O)Nc2cccc(C(=O)/C=C/c3cc(OC)c(OC)c(OC)c3)c2)nc2ccccc2c1=O,GI50,[1],1.94 µM
same,TGI,[1],3.92 µM
same,GI50,[2],2.15 µM
same,TGI,[2],9.11 µM
same,GI50,[3],3.05 µM
same,TGI,[3],30.8 µM
same,GI50,[4],2.29 µM
same,TGI,[4],6.61 µM
same,GI50,[5],2.66 µM
same,TGI,[5],9.31 µM
same,GI50,[6],3.75 µM
same,TGI,[6],> 100 µM
same,GI50,[7],2.57 µM
same,TGI,[7],> 100 µM
same,GI50,[8],3.91 µM
same,TGI,[8],89.1 µM
same,GI50,[9],2.36 µM
same,TGI,[9],6.12 µM
same,GI50,[10],4.26 µM
same,TGI,[10],56.7 µM
same,GI50,[11],2 µM
same,TGI,[11],4.49 µM
same,GI50,[12],1.73 µM
same,TGI,[12],3.75 µM
same,GI50,[13],2.27 µM
same,TGI,[13],9.62 µM
same,GI50,[14],3.38 µM
same,TGI,[14],> 100 µM
same,GI50,[15],2.46 µM
same,TGI,[15],6.78 µM
same,GI50,[16],3.17 µM
same,TGI,[16],> 100 µM
same,GI50,[17],3.64 µM
same,TGI,[17],> 100 µM
same,GI50,[18],2.07 µM
same,TGI,[18],4.39 µM
same,GI50,[19],1.8 µM
same,TGI,[19],4.31 µM
same,GI50,[20],3.19 µM
same,TGI,[20],> 100 µM
same,GI50,[21],1.89 µM
same,TGI,[21],4.52 µM
same,GI50,[22],1.18 µM
same,TGI,[22],2.63 µM
same,GI50,[23],2.9 µM
same,TGI,[23],> 100 µM
same,GI50,[24],6.52 µM
same,TGI,[24],> 100 µM
same,GI50,[25],2.3 µM
same,TGI,[25],> 100 µM
same,GI50,[26],5.26 µM
same,TGI,[26],> 100 µM
same,GI50,[27],3.12 µM
same,TGI,[27],48.2 µM
same,GI50,[28],3.55 µM
same,TGI,[28],> 100 µM
same,GI50,[29],1.91 µM
same,TGI,[29],5.55 µM
same,GI50,[30],2.63 µM
same,TGI,[30],8.58 µM
same,GI50,[31],2.6 µM
same,TGI,[31],11.7 µM
same,GI50,[32],2.86 µM
same,TGI,[32],9.29 µM
same,GI50,[33],2.89 µM
same,TGI,[33],15.4 µM
same,GI50,[34],5.52 µM
same,TGI,[34],> 100 µM
same,GI50,[35],2.36 µM
same,TGI,[35],5.65 µM
same,GI50,[36],3.16 µM
same,TGI,[36],> 100 µM
same,GI50,[37],5.09 µM
same,TGI,[37],> 100 µM
same,GI50,[38],1.56 µM
same,TGI,[38],7.82 µM
same,GI50,[39],4.13 µM
same,TGI,[39],> 100 µM
same,GI50,[40],4.1 µM
same,TGI,[40],20.6 µM
same,GI50,[41],2.3 µM
same,TGI,[41],5.77 µM
same,GI50,[42],3.3 µM
same,TGI,[42],15.3 µM
same,GI50,[43],3.66 µM
same,TGI,[43],> 100 µM
same,GI50,[44],9.79 µM
same,TGI,[44],32 µM
same,GI50,[45],16.2 µM
same,TGI,[45],76.3 µM
same,GI50,[46],3.86 µM
same,TGI,[46],> 100 µM
same,GI50,[47],3.89 µM
same,TGI,[47],> 100 µM
same,GI50,[48],2.65 µM
same,TGI,[48],> 100 µM
same,GI50,[49],1.29 µM
same,TGI,[49],> 100 µM
same,GI50,[50],2.48 µM
same,TGI,[50],7.05 µM
same,GI50,[51],5.08 µM
same,TGI,[51],> 100 µM
same,GI50,[52],7.08 µM
same,TGI,[52],> 100 µM
same,GI50,[53],2.35 µM
same,TGI,[53],6.46 µM
same,GI50,[54],12.5 µM
same,TGI,[54],> 100 µM
same,GI50,[55],4.43 µM
same,TGI,[55],76.7 µM
same,GI50,[56],1.7 µM
same,TGI,[56],6.42 µM
